Experimental data taken from article PMC4577729, “7-(Pyrazol-4-yl)-3H-imidazo[4,5-b]pyridine-based derivatives for kinase inhibition: Co-crystallisation studies with Aurora-A reveal distinct differences in the orientation of the pyrazole N1-substituent” (Bioorganic & Medicinal Chemistry Letters, 2015).

Experiments:
[1] = tested on: SW620 human colon carcinoma cells; assay: SW620 cell growth inhibition; assay type: cell-based; details: 72 h incubation
Source text: As part of our medicinal chemistry programme to discover selective inhibitors of Aurora-A,[12] we introduced the 1-benzyl-1H-pyrazol-4-yl moiety at C7 of the imidazo[4,5-b]pyridine scaffold to provide 7a (Table 1). We previously reported 1,3-dimethyl-1H-pyrazol-4-yl as a preferred substituent at the C2 position of the imidazo[4,5-b]pyridine scaffold[11] and this moiety was therefore incorporated into the design of 7a and analogues presented in this study. […] This in vitro profile prompted us to investigate this C7-pyrazole substituted imidazo[4,5-b]pyridine subseries in more detail. Firstly, we attempted to increase biochemical potency against Aurora-A, and also to improve microsomal stability.

[2] = Mouse liver microsomal stability; assay type: in vitro ADME; details: percentage of compound metabolised after a 30 min incubation, mouse liver microsomes
Protocol: [18] MLM and HLM microsomal stabilities were determined as described in Ref. [12].

TBK1 = TBK1 (Homo sapiens, UniProt Q9UHD2); assay: Kinase selectivity profiling; assay type: biochemical; details: 1 µM, assay duplicates
Protocol: (§1) [20] Kinase selectivity profiling for compounds 7a, 7d, 14d and 14g was carried out at the International Centre for Protein Kinase Profiling, Division of Signal Transduction Therapy, University of Dundee.
(§2) Table S1: Kinase selectivity profiling of compounds 7a and 7d in a 102-kinase panel screened at a concentration of 1 µM.
(§3) Table S2: Kinase selectivity profiling of compounds 14d and 14g in a 105-kinase panel screened at a concentration of 1 µM.

MELK = MELK (Homo sapiens, UniProt Q14680); assay: Kinase selectivity profiling; assay type: biochemical; details: 1 µM, assay duplicates
MELK, sequence (Q14680 whole entry): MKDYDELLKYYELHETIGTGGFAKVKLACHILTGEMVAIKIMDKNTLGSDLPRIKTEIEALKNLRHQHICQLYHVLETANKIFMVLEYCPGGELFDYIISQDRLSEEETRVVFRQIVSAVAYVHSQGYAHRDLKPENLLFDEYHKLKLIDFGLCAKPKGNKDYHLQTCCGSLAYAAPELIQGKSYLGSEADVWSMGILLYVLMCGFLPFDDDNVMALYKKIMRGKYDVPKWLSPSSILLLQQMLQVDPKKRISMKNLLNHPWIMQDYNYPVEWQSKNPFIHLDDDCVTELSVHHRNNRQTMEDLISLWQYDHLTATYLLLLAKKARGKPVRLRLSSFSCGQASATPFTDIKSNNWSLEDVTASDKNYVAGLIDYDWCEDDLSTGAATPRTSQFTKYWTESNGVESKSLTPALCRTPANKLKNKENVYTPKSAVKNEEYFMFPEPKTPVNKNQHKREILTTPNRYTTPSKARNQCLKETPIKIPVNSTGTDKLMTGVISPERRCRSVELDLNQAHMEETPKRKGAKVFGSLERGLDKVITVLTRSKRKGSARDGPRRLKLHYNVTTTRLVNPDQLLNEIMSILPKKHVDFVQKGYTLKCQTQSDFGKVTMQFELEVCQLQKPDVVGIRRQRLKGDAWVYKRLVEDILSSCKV
Protocol: as §1, §2, §3

PKD1 = PKD1 (Homo sapiens, UniProt Q15139); assay: Kinase selectivity profiling; assay type: biochemical; details: 1 µM, assay duplicates
Protocol: as §1, §2, §3

SGK1 = SGK1 (Homo sapiens, UniProt O00141); assay: Kinase selectivity profiling; assay type: biochemical; details: 1 µM, assay duplicates
Protocol: as §1, §2, §3

MKK1 = MKK1 (Homo sapiens, UniProt Q02750); assay: Kinase selectivity profiling; assay type: biochemical; details: 1 µM, assay duplicates
Protocol: as §1, §2, §3

MARK1 = MARK1 (Homo sapiens, UniProt Q9P0L2); assay: Kinase selectivity profiling; assay type: biochemical; details: 1 µM, assay duplicates
Protocol: as §1, §2, §3

PRAK = PRAK (Homo sapiens, UniProt Q8IW41); assay: Kinase selectivity profiling; assay type: biochemical; details: 1 µM, assay duplicates
Protocol: as §1, §2, §3

PKCz = PKCz (Homo sapiens, UniProt Q05513); assay: Kinase selectivity profiling; assay type: biochemical; details: 1 µM, assay duplicates
Protocol: as §1, §2, §3

CAMK1 = CAMK1 (Homo sapiens, UniProt Q14012); assay: Kinase selectivity profiling; assay type: biochemical; details: 1 µM, assay duplicates
Protocol: as §1, §2, §3

CHK2 = CHK2 (Homo sapiens, UniProt O96017); assay: Kinase selectivity profiling; assay type: biochemical; details: 1 µM, assay duplicates
Protocol: as §1, §2, §3

EPH-A4 = EPH-A4 (Homo sapiens, UniProt P54764); assay: Kinase selectivity profiling; assay type: biochemical; details: 1 µM, assay duplicates
Protocol: as §1, §2, §3

ERK8 = target: T1, ERK8 (Homo sapiens, UniProt Q8TD08); assay: Kinase selectivity profiling; assay type: biochemical; details: for ERK8 inhibition: 1 μM; for ERK8 % activity remaining: 1 µM, assay duplicates
T1 sequence (Q8TD08 1-544): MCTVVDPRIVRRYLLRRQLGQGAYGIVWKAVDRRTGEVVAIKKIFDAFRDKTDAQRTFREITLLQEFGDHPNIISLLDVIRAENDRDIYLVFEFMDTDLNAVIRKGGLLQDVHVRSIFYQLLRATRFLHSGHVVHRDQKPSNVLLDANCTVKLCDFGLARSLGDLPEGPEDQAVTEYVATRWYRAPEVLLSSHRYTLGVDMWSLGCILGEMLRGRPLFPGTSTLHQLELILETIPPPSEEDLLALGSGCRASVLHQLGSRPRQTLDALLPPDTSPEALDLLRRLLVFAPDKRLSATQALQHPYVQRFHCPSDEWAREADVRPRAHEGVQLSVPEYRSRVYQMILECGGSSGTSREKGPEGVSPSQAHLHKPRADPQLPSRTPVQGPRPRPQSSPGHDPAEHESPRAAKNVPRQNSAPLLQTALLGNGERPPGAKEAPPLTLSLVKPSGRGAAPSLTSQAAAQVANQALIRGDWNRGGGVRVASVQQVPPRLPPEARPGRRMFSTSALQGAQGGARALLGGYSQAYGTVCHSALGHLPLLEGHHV
Protocol: as §1, §2, §3

p38a MAPK = p38a MAPK (Homo sapiens, UniProt Q16539); assay: Kinase selectivity profiling; assay type: biochemical; details: 1 µM, assay duplicates
p38a MAPK, sequence (Q16539 whole entry): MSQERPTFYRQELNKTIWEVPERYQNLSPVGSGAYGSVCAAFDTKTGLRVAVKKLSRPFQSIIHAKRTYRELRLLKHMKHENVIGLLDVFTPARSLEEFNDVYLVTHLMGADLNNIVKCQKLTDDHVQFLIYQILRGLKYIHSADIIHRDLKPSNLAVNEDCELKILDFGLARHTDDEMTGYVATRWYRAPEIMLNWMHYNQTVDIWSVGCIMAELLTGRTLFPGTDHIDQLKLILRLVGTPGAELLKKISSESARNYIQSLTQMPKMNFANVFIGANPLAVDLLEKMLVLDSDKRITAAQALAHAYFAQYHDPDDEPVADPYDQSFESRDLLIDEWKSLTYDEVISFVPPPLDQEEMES
Protocol: as §1, §2, §3

PKBa = PKBa (Homo sapiens, UniProt P31749); assay: Kinase selectivity profiling; assay type: biochemical; details: 1 µM, assay duplicates
Protocol: as §1, §2, §3

RIPK2 = RIPK2 (Homo sapiens, UniProt O43353); assay: Kinase selectivity profiling; assay type: biochemical; details: 1 µM, assay duplicates
Protocol: as §1, §2, §3

TAK1 = TAK1 (Homo sapiens, UniProt O43318); assay: Kinase selectivity profiling; assay type: biochemical; details: 1 µM, assay duplicates
Protocol: as §1, §2, §3

SRPK1 = SRPK1 (Homo sapiens, UniProt Q96SB4); assay: Kinase selectivity profiling; assay type: biochemical; details: 1 µM, assay duplicates
SRPK1, sequence (Q96SB4 whole entry): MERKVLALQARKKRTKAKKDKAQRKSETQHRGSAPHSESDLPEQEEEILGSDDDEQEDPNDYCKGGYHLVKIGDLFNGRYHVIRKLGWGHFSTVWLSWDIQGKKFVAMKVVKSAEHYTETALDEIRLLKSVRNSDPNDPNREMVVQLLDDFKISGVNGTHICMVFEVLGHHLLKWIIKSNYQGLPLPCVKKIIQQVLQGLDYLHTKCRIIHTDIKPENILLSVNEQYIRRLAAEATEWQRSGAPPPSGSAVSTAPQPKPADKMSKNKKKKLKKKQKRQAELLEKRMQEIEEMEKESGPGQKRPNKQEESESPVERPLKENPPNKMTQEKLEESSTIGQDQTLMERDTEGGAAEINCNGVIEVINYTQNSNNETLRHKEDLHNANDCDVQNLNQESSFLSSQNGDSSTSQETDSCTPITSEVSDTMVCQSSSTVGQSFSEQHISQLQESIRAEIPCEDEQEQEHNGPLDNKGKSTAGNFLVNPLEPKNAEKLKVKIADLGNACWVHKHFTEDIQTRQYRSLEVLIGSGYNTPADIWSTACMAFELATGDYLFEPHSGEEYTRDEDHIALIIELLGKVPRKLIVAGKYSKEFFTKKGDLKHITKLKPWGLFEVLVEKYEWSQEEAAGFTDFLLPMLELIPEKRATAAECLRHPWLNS
Protocol: as §1, §2, §3

RSK1 = RSK1 (Homo sapiens, UniProt Q15418); assay: Kinase selectivity profiling; assay type: biochemical; details: 1 µM, assay duplicates
Protocol: as §1, §2, §3

PAK5 = PAK5 (Homo sapiens, UniProt Q9P286); assay: Kinase selectivity profiling; assay type: biochemical; details: 1 µM, assay duplicates
PAK5, sequence (Q9P286 whole entry): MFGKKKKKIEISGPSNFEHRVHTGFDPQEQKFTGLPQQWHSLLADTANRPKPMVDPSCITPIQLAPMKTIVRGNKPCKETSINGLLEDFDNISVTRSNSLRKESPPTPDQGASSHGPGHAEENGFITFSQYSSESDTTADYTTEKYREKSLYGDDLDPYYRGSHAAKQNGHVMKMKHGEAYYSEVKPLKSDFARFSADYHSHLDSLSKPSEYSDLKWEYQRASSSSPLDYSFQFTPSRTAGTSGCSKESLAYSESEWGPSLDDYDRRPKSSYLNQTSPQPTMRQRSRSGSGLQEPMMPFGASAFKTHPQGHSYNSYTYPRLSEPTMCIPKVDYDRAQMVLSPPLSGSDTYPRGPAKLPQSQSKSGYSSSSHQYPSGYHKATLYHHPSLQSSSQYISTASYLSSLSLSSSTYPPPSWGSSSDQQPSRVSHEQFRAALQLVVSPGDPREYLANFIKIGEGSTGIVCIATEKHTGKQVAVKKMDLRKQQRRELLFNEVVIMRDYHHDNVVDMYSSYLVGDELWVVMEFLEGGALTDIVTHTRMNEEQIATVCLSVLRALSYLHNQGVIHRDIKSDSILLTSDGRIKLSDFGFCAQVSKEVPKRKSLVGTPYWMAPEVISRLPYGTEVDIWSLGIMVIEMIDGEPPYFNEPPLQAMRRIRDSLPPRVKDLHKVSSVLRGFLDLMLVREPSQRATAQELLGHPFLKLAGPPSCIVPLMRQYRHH
Protocol: as §1, §2, §3

ROCK 2 = ROCK 2 (Homo sapiens, UniProt O75116); assay: Kinase selectivity profiling; assay type: biochemical; details: 1 µM, assay duplicates
Protocol: as §1, §2, §3

NUAK1 = NUAK1 (Homo sapiens, UniProt O60285); assay: Kinase selectivity profiling; assay type: biochemical; details: 1 µM, assay duplicates
NUAK1, sequence (O60285 whole entry): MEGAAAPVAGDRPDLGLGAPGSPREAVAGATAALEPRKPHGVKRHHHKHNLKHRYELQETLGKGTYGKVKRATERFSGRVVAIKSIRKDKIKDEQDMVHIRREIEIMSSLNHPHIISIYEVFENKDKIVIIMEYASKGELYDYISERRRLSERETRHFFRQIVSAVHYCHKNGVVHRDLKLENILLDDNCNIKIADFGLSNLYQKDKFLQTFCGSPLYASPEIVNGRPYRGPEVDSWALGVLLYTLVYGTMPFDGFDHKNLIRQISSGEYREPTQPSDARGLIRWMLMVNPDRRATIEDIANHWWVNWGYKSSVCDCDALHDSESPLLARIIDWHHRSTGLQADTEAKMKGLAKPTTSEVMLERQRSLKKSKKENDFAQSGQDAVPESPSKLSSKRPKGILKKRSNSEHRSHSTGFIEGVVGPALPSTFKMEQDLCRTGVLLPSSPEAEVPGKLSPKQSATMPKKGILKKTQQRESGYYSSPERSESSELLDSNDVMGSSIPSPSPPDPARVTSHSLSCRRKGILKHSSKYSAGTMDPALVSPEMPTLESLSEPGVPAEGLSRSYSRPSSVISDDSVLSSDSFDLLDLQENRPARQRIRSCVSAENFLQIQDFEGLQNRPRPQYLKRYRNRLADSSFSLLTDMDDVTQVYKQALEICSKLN
Protocol: as §1, §2, §3

BTK = BTK (Homo sapiens, UniProt Q06187); assay: Kinase selectivity profiling; assay type: biochemical; details: 1 µM, assay duplicates
BTK, sequence (Q06187 whole entry): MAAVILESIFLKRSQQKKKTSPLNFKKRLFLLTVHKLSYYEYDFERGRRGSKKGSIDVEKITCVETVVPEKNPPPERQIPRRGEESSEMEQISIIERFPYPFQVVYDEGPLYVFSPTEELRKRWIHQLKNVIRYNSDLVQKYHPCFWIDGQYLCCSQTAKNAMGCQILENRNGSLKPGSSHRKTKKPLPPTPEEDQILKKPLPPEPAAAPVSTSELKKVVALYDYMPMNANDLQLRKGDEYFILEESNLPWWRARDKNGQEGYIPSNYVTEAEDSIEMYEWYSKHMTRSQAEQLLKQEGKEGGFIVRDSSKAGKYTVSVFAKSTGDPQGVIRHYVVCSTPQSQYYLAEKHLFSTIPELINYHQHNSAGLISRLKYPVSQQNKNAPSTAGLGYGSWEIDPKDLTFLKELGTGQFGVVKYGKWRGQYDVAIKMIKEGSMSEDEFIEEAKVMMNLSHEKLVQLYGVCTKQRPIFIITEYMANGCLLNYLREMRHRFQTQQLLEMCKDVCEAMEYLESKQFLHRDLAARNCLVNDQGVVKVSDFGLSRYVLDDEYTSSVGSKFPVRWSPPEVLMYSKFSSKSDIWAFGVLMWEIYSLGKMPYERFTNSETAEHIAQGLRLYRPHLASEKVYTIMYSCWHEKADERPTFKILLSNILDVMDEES
Protocol: as §1, §2, §3

JAK2 = JAK2 (Homo sapiens, UniProt O60674); assay: Kinase selectivity profiling; assay type: biochemical; details: for JAK2 inhibition: 1 μM; for JAK2 % activity remaining: 1 µM, assay duplicates
JAK2, sequence (O60674 whole entry): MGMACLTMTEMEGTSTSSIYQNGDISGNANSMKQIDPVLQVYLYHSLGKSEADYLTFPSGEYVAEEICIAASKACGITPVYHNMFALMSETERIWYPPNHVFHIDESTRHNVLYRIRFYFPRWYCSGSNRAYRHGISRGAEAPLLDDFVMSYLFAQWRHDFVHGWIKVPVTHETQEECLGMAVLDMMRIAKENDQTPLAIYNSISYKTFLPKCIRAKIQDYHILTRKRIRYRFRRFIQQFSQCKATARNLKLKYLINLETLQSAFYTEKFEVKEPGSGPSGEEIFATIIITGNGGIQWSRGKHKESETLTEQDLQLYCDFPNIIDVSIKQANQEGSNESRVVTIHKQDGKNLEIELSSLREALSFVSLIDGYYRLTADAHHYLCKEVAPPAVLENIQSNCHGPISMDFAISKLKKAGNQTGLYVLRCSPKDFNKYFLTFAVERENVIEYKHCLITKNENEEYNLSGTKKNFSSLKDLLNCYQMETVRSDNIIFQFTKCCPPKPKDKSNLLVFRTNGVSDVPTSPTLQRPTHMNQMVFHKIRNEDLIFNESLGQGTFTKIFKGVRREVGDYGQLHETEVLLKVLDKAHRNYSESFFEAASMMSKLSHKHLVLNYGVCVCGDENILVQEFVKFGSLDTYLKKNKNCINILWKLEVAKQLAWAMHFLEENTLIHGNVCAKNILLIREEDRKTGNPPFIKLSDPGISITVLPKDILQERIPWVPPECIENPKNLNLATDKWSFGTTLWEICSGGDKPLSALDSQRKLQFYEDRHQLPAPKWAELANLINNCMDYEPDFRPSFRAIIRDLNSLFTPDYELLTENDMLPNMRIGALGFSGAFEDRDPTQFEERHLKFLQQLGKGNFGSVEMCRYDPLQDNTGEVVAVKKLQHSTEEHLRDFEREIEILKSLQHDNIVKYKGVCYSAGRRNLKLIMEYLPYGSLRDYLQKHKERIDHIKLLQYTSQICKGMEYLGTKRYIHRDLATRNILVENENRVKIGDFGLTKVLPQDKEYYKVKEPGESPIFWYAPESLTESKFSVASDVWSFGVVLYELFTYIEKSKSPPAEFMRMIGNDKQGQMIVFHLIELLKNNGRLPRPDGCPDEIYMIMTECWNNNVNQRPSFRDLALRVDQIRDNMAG
Protocol: as §1, §2, §3

Lck = Lck (Homo sapiens, UniProt P06239); assay: Kinase selectivity profiling; assay type: biochemical; details: 1 µM, assay duplicates
Protocol: as §1, §2, §3

PIM2 = PIM2 (Homo sapiens, UniProt Q9P1W9); assay: Kinase selectivity profiling; assay type: biochemical; details: 1 µM, assay duplicates
Protocol: as §1, §2, §3

PIM1 = PIM1 (Homo sapiens, UniProt P11309); assay: Kinase selectivity profiling; assay type: biochemical; details: 1 µM, assay duplicates
Protocol: as §1, §2, §3

LKB1 = LKB1 (Homo sapiens, UniProt Q15831); assay: Kinase selectivity profiling; assay type: biochemical; details: 1 µM, assay duplicates
Protocol: as §1, §2, §3

JNK3 = JNK3 (Homo sapiens, UniProt P53779); assay: Kinase selectivity profiling; assay type: biochemical; details: 1 µM, assay duplicates
Protocol: as §1, §2, §3

MINK1 = MINK1 (Homo sapiens, UniProt Q8N4C8); assay: Kinase selectivity profiling; assay type: biochemical; details: 1 µM, assay duplicates
Protocol: as §1, §2, §3

Compound | GI50 [1] [nM] | MLM % met/30 min [2] [%] | TBK1 % activity remaining (TBK1) [%] | MELK % activity remaining (MELK) [%] | PKD1 % activity remaining (PKD1) [%] | SGK1 % activity remaining (SGK1) [%] | MKK1 % activity remaining (MKK1) [%] | MARK1 % activity remaining (MARK1) [%] | PRAK % activity remaining (PRAK) [%] | PKCz % activity remaining (PKCz) [%] | CAMK1 % activity remaining (CAMK1) [%] | CHK2 % activity remaining (CHK2) [%] | EPH-A4 % activity remaining (EPH-A4) [%] | ERK8 inhibition (ERK8) | ERK8 % activity remaining (ERK8) [%] | p38a MAPK % activity remaining (p38a MAPK) [%] | PKBa % activity remaining (PKBa) [%] | RIPK2 % activity remaining (RIPK2) [%] | TAK1 % activity remaining (TAK1) [%] | SRPK1 % activity remaining (SRPK1) [%] | further results
Cc1nn(C)cc1-c1nc2c(-c3cnn(Cc4ccccc4)c3)c(Cl)cnc2[nH]1 [Compound 7a] | 180 | 40 | 24 | 19 | 76 | 56 | 28 | 31 | 83 | 103 | 87 | 26 | 54 | greater than 80% | 6 | 90 | 70 | 40 | 6 | 73 | RSK1 % activity remaining (RSK1): 25%; PAK5 % activity remaining (PAK5): 36%; ROCK 2 % activity remaining (ROCK 2): 36%; NUAK1 % activity remaining (NUAK1): 1%; BTK % activity remaining (BTK): 46%; JAK2 inhibition (JAK2): greater than 80%; JAK2 % activity remaining (JAK2): 2%; Lck % activity remaining (Lck): 61%; PIM2 % activity remaining (PIM2): 86%; PIM1 % activity remaining (PIM1): 71%; LKB1 % activity remaining (LKB1): 49%; JNK3 % activity remaining (JNK3): 18%; MINK1 % activity remaining (MINK1): 28%
Cc1cc(Cn2cc(-c3c(Cl)cnc4[nH]c(-c5cn(C)nc5C)nc34)cn2)no1 [Compound 14d] | 350 | 35 | 7 | 49 | 97 | 65 | 40 | 38 | 100 | 96 | 77 | 32 | 51 | ≥ 80% | 1 | 85 | 99 | 49 | 18 | 31 | RSK1 % activity remaining (RSK1): 28%; PAK5 % activity remaining (PAK5): 41%; ROCK 2 % activity remaining (ROCK 2): 44%; NUAK1 % activity remaining (NUAK1): 8%; BTK % activity remaining (BTK): 33%; JAK2 inhibition (JAK2): ≥ 80%; JAK2 % activity remaining (JAK2): 2%; Lck % activity remaining (Lck): 34%; PIM2 % activity remaining (PIM2): 91%; PIM1 % activity remaining (PIM1): 96%; LKB1 % activity remaining (LKB1): 62%; JNK3 % activity remaining (JNK3): 62%; MINK1 % activity remaining (MINK1): 86%
